Where a SMILES comes first, the peptide text is derived from it.
Key:
Human oligomerised Aβ = test: Soluble Aβ oligomer levels in brain, sandwich ELISA; type: in vivo, human Aβ in APP/PS1 mice; conditions: 100 nmol/kg i.p. once daily, 21 days, 10 months old APP/PS1 mice, vs saline; p<0.01, 4 animals per group
Protocol: (§1) APPswe/PS1ΔE9 mice with a C57Bl/6 background (APP/PS1 mice) were obtained from the Jackson lab (http://research.jax.org/repository/alzheimers.html). […] To look at the effects of RI-OR2-TAT on mouse brain pathology (experiment 2), 8 female 10-months-old APP/PS1 mice were used. The animals were housed in single cages in a temperature controlled holding room (21.5°C±1) with 12∶12 h light and dark cycle. Food and water was available ad libitum.
For experiment 2, 4 animals were injected intraperitonially (i.p.) with 0.9% NaCl (vehicle control) and the other 4 with RI-OR2-TAT (100 nmol/kg in 0.9% NaCl) once daily, for 21 days. On the 22nd day, the animals were perfused transcardially with ice-cold PBS and 4% paraformaldehyde and then the brains were removed and post-fixed in 4% ice cold paraformaldehyde.
Human oligomerised Aβ was measured using a kit purchased from Invitrogen, according to the manufacturer’s instructions. Briefly, the right hemispheres from the brains of transgenic APP/PS1 mice treated with RI-OR2-TAT, or controls, were pooled separately and homogenized. Quantification of total protein was determined using the Bradford protein assay and was measured on a Nanophotometer (Implen, Germany). The homogenates were centrifuged at 100,000 g at 4°C for 1 h. […] The final Aβ oligomer values were determined following normalization of total protein levels.

[1] = system: β-amyloid plaques in APP/PS1 mouse cortex; test: Amyloid plaque load, β-amyloid immunostaining, cortex; type: in vivo; conditions: 100 nmol/kg i.p. once daily, 21 days, 10 months old APP/PS1 mice, vs saline, p<0.0001, N = 4 per group
Protocol: as §1
For experiment 2, 4 animals were injected intraperitonially (i.p.) with 0.9% NaCl (vehicle control) and the other 4 with RI-OR2-TAT (100 nmol/kg in 0.9% NaCl) once daily, for 21 days. […]
For experiment 2 (effects on brain pathology), sections were examined for activated microglia (using anti-Iba-1 antibody), oxidative stress (anti-8-oxo-guanine antibody), immature neurons (anti-doublecourtin antibody) or total plaque load (anti-Aβ antibody). […] Oxidative stress was assessed by denaturing DNA in each section using 2N HCl and the sections were then stained for 8-oxo guanine (1∶200 dilution, MAB3560, Millipore). Young immature neurons were detected by immunostaining for doublecortin (1∶200 dilution, sc-66911, Santa Cruz Biotechnology). Total plaque load was quantified by immunostaining for β-amyloid (1∶200 dilution, Invitrogen, 71–5800).
All sections were visualized using an Axio Scope 1 fluorescence microscope (Zeiss, Germany). […]

Aβ42 fibrils = Aβ42 fibrils (Homo sapiens, UniProt P05067); test: Surface plasmon resonance (SPR), immobilized Aβ42 fibrils; type: binding
Sequence of Aβ42 fibrils (P05067 672-713 limits assumed): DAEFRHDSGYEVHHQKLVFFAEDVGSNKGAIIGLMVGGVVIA
Protocol: These experiments were conducted using a Sensi Q semi-automatic SPR machine (ICx Nomadics). This apparatus has two parallel flow cells; one was used to immobilize Aβ42 fibrils while the other was used as “reference” (empty surface). A COOH5 sensor chip (ICx Nomadics) was employed for this purpose and the peptide was immobilized by amine coupling chemistry. Briefly, after surface activation, the peptide preparation was diluted to 10 µM in acetate buffer (pH 4.0) and then injected for 5 min at a flow rate of 30 µl/min. Any remaining activated groups were blocked with ethanolamine (pH 8.0). The final immobilization level was ∼5,000 resonance units (1 RU = 1 pg of protein/mm^2). The empty “reference” surface was prepared in parallel using the same immobilization procedure, but without addition of the peptide. Sensorgrams were then obtained via injection of three different concentrations of RI-OR2–TAT (1, 3 and 6 µM), as well as the vehicle (PBS with 0.005% Tween 20), over the immobilized ligand or control surface, in parallel. These SPR data can be interpreted to provide an estimate for the affinity of binding of the inhibitors to Aβ fibrils, [28]. Data for the three concentrations of RI-OR2-TAT were fitted separately by Qdat software [ICx Nomadics] using the 1∶1 pseudo-first order Langmuir interaction model. Eq. 1 was used to fit the association while the dissociation was fitted by eq. 2. The rate constants (kon and koff) were used to calculate kd as reported in eq. 3. [drawing 1] (1) [drawing 2] (2) [drawing 3] (3) Where Rt is binding response at time t; C is the molar concentration of the analyte at the interaction surface at time t; Rmax is the maximal binding response; R0 is the binding response at time t0 (i. e. time at the onset of the dissociation phase); kon is the association rate constant; koff is the dissociation rate constant. Values were expressed as a mean ± SD.

Aβ42 = test: Thioflavin T (ThT) assay for Aβ fibrils; type: biochemical
Protocol: This method was the same as that published previously. Briefly, 60 µl samples of solutions containing Aβ42 (25 µM), ThT (15 µM) and between 0 and 125 µM RI-OR2 or RI-OR2–TAT, in 10 mM phosphate buffered saline (PBS), pH 7.4, were incubated in sealed, black, clear-bottomed 384-well plates (Corning). ThT fluorescence was monitored every 10 mins (λex = 442 nm, λem = 483 nm) for 48 h at 30°C in a Biotek Synergy 2 plate reader.

fold lower kd than previously reported for RI-OR2 (Aβ42 fibrils; Aβ42 fibrils, SPR, RI-OR2 value from ref 16): ~100 -fold | koff (Aβ42 fibrils; SPR, 1, 3 and 6 µM, 1∶1 Langmuir model, PBS with 0.005% Tween 20, mean ± SD, read-out: koff (dissociation rate constant)): 0.00037 ± 0.00015 s⁻¹ | kon (Aβ42 fibrils; SPR, 1, 3 and 6 µM, 1∶1 Langmuir model, PBS with 0.005% Tween 20, mean ± SD, read-out: kon (association rate constant)): 3680 ± 615 M⁻¹ s⁻¹ | Kd (Aβ42 fibrils; SPR, Aβ42 fibrils, from koff and kon, 1∶1 Langmuir model, three concentrations fitted separately, read-out: kd (calculated apparent affinity)): 58 to 125 nM
Structure (SMILES): CC(=O)N[C@H](CCCNC(=N)N)C(=O)NCC(=O)N[C@H](Cc1ccccc1)C(=O)N[C@H](Cc1ccccc1)C(=O)N[C@@H](C(=O)N[C@H](CC(C)C)C(=O)N[C@H](CCCCN)C(=O)NCC(=O)N[C@H](CCCNC(=N)N)C(=O)N[C@H](CCCNC(=N)N)C(=O)N[C@H](CCCNC(=N)N)C(=O)N[C@H](CCCNC(=N)N)C(=O)N[C@H](CCC(N)=O)C(=O)N[C@H](CCCNC(=N)N)C(=O)N[C@H](CCCNC(=N)N)C(=O)N[C@H](CCCCN)C(=O)N[C@H](CCCCN)C(=O)N[C@H](CCCNC(=N)N)C(=O)NCC(=O)N[C@H](Cc1ccc(O)cc1)C(N)=O)C(C)C [RI-OR2-TAT, Ac-rGffvlkGrrrrqrrkkrGy-NH2] (HELM PEPTIDE1{[ac].[dR].G.[dF].[dF].[dV].[dL].[dK].G.[dR].[dR].[dR].[dR].[dQ].[dR].[dR].[dK].[dK].[dR].G.[dY].[am]}$$$$V2.0)
reduction of soluble Aß oligomer levels in brain (Human oligomerised Aβ): 25% | reduction of amyloid plaque load [1]: 32% | ThT inhibition compared with RI-OR2 (Aβ42; 48 h, 25 µM Aβ42, PBS pH 7.4, same molar ratios): slightly better inhibitor than RI-OR2 | ThT fluorescence after incubation of Aβ42 with inhibitor (Aβ42; 48 h, 30°C, 25 µM Aβ42, 15 µM ThT, 10 mM PBS pH 7.4, molar ratios 1∶1, 1∶2, 1∶4 and 1∶10 (inhibitor:Aβ42)): lower fluorescence | inhibition of Aβ42 aggregation (Fig. 1) (Aβ42; ThT, 25 µM Aβ42, 48 h, figure title): inhibit the aggregation of Aβ42

Reference: PMC3561363, “A Novel Retro-Inverso Peptide Inhibitor Reduces Amyloid Deposition, Oxidation and Inflammation and Stimulates Neurogenesis in the APPswe/PS1ΔE9 Mouse Model of Alzheimer’s Disease” (PLoS ONE, 2013)
